Measured values as given in PubChem BioAssay AID2060506 (Molecular Pharmacology Branch, DTP, NCI, 2025).

System: 598228-144-R-J1-PDC complex spheroid viability
Experiment: Anticancer human tumor 598228-144-R-J1-PDC patient-derived serous endometrial adenocarcinoma cell line growth inhibition [GQUAD]
Details: for IC50: curve of first compound; for viability, T/C: stronger effect = lower value
In short: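 Viability of tumor cells grown as complex spheroids with endothelial and stromal cells, exposed to drug combinations. Top concentration at or near clinical Cmax (else 10 microM), diluted in half-log increments.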

[1] = second compound 0.0316 µM, first compound 0.0316 µM
[2] = second compound 0.0316 µM, first compound 0.1 µM
[3] = second compound 0.0316 µM, first compound 0.316 µM
[4] = second compound 0.0316 µM, first compound 1 µM
[5] = second compound 0.0316 µM, first compound 3.16 µM
[6] = second compound 0.0316 µM, first compound 10 µM
[7] = second compound 0.1 µM, first compound 0.0316 µM
[8] = second compound 0.1 µM, first compound 0.1 µM
[9] = second compound 0.1 µM, first compound 0.316 µM
[10] = second compound 0.1 µM, first compound 1 µM
[11] = second compound 0.1 µM, first compound 3.16 µM
[12] = second compound 0.1 µM, first compound 10 µM
[13] = second compound 0.316 µM, first compound 0.0316 µM
[14] = second compound 0.316 µM, first compound 0.1 µM
[15] = second compound 0.316 µM, first compound 0.316 µM
[16] = second compound 0.316 µM, first compound 1 µM
[17] = second compound 0.316 µM, first compound 3.16 µM
[18] = second compound 0.316 µM, first compound 10 µM
[19] = second compound 1 µM, first compound 0.0316 µM
[20] = second compound 1 µM, first compound 0.1 µM
[21] = second compound 1 µM, first compound 0.316 µM
[22] = second compound 1 µM, first compound 1 µM
[23] = second compound 1 µM, first compound 3.16 µM
[24] = second compound 1 µM, first compound 10 µM
[25] = second compound 3.16 µM, first compound 0.0316 µM
[26] = second compound 3.16 µM, first compound 0.1 µM
[27] = second compound 3.16 µM, first compound 0.316 µM
[28] = second compound 3.16 µM, first compound 1 µM
[29] = second compound 3.16 µM, first compound 3.16 µM
[30] = second compound 3.16 µM, first compound 10 µM
[31] = second compound 10 µM, first compound 0.0316 µM
[32] = second compound 10 µM, first compound 0.1 µM
[33] = second compound 10 µM, first compound 0.316 µM
[34] = second compound 10 µM, first compound 1 µM
[35] = second compound 10 µM, first compound 3.16 µM
[36] = second compound 10 µM, first compound 10 µM
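Also: spheroids exposed to the agents for one week before reading.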
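For viability, T/C in this document: percent of vehicle DMSO control viability so 100% = untreated growth.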

## O=C(c1cc(Cc2n[nH]c(=O)c3ccccc23)ccc1F)N1CCN(C(=O)C2CC2)CC1 + CN(C)c1ccc(Nc2c3ccc(NC(=O)CCN4CCCC4)cc3nc3cc(NC(=O)CCN4CCCC4)ccc23)cc1
Second compound 0.0316 µM
  IC50: > 10 µM
Second compound 0.1 µM
  IC50: > 10 µM
Second compound 0.316 µM
  IC50: > 10 µM
Second compound 1 µM
  IC50: > 10 µM
Second compound 3.16 µM
  IC50: > 10 µM
Second compound 10 µM
  IC50: > 10 µM
[1]
  viability, T/C: 84.9%
[2]
  viability, T/C: 92.6%
[3]
  viability, T/C: 79.7%
[4]
  viability, T/C: 92.9%
[5]
  viability, T/C: 95%
[6]
  viability, T/C: 75.8%
[7]
  viability, T/C: 110%
[8]
  viability, T/C: 101%
[9]
  viability, T/C: 91%
[10]
  viability, T/C: 84.4%
[11]
  viability, T/C: 87.2%
[12]
  viability, T/C: 75.1%
[13]
  viability, T/C: 98%
[14]
  viability, T/C: 85.3%
[15]
  viability, T/C: 96.6%
[16]
  viability, T/C: 91.1%
[17]
  viability, T/C: 93.9%
[18]
  viability, T/C: 65.9%
[19]
  viability, T/C: 82.5%
[20]
  viability, T/C: 93.9%
[21]
  viability, T/C: 103%
[22]
  viability, T/C: 87.5%
[23]
  viability, T/C: 87.4%
[24]
  viability, T/C: 54.1%
[25]
  viability, T/C: 98.8%
[26]
  viability, T/C: 91.8%
[27]
  viability, T/C: 92.8%
[28]
  viability, T/C: 88.3%
[29]
  viability, T/C: 92.9%
[30]
  viability, T/C: 68.3%
[31]
  viability, T/C: 76.4%
[32]
  viability, T/C: 89.3%
[33]
  viability, T/C: 91.9%
[34]
  viability, T/C: 73.8%
[35]
  viability, T/C: 89.7%
[36]
  viability, T/C: 50.3%

## CC(C)n1c(=O)n(C)c2cnc3cc(F)c(-c4ccc(OCCCN5CCCCC5)nc4)cc3c21 + Cc1cnc(CNC(=O)c2c(=O)c3ccc(N4CCCN(C)CC4)nc3n3c2sc2ccccc23)cn1
Second compound 0.0316 µM
  IC50: 8.28 µM
Second compound 0.1 µM
  IC50: 0.793 µM
Second compound 0.316 µM
  IC50: 3.55 µM
Second compound 1 µM
  IC50: 2.62 µM
Second compound 3.16 µM
  IC50: < 0.0316 µM
Second compound 10 µM
  IC50: < 0.0316 µM
[1]
  viability, T/C: 58.2%
[2]
  viability, T/C: 78.2%
[3]
  viability, T/C: 77.8%
[4]
  viability, T/C: 63.1%
[5]
  viability, T/C: 62.8%
[6]
  viability, T/C: 47.5%
[7]
  viability, T/C: 70.2%
[8]
  viability, T/C: 57.9%
[9]
  viability, T/C: 53.4%
[10]
  viability, T/C: 44.3%
[11]
  viability, T/C: 61.3%
[12]
  viability, T/C: 36.8%
[13]
  viability, T/C: 52.1%
[14]
  viability, T/C: 50.3%
[15]
  viability, T/C: 55.1%
[16]
  viability, T/C: 48.8%
[17]
  viability, T/C: 52.1%
[18]
  viability, T/C: 36%
[19]
  viability, T/C: 53.2%
[20]
  viability, T/C: 59.2%
[21]
  viability, T/C: 59.6%
[22]
  viability, T/C: 56.5%
[23]
  viability, T/C: 47.5%
[24]
  viability, T/C: 28.1%
[25]
  viability, T/C: 50.4%
[26]
  viability, T/C: 46%
[27]
  viability, T/C: 48.3%
[28]
  viability, T/C: 50.5%
[29]
  viability, T/C: 38.1%
[30]
  viability, T/C: 3.5%
[31]
  viability, T/C: 40.7%
[32]
  viability, T/C: 36.6%
[33]
  viability, T/C: 39.1%
[34]
  viability, T/C: 29.9%
[35]
  viability, T/C: 25%
[36]
  viability, T/C: 0.34%

## COc1ncnc(C2CC2)c1-c1ncc2cnn(Cc3ccc(-c4nc(C(F)(F)F)cn4C(C)C)cc3)c2n1 + Cc1cnc(CNC(=O)c2c(=O)c3ccc(N4CCCN(C)CC4)nc3n3c2sc2ccccc23)cn1
Second compound 0.0316 µM
  IC50: > 10 µM
Second compound 0.1 µM
  IC50: > 10 µM
Second compound 0.316 µM
  IC50: > 10 µM
Second compound 1 µM
  IC50: > 10 µM
Second compound 3.16 µM
  IC50: > 10 µM
Second compound 10 µM
  IC50: < 0.0316 µM
[1]
  viability, T/C: 81%
[2]
  viability, T/C: 88.8%
[3]
  viability, T/C: 72.9%
[4]
  viability, T/C: 86.8%
[5]
  viability, T/C: 102%
[6]
  viability, T/C: 85.4%
[7]
  viability, T/C: 67.3%
[8]
  viability, T/C: 79.3%
[9]
  viability, T/C: 95.1%
[10]
  viability, T/C: 68.4%
[11]
  viability, T/C: 63.9%
[12]
  viability, T/C: 78.2%
[13]
  viability, T/C: 82.6%
[14]
  viability, T/C: 77.5%
[15]
  viability, T/C: 60.9%
[16]
  viability, T/C: 73.4%
[17]
  viability, T/C: 80.7%
[18]
  viability, T/C: 65.2%
[19]
  viability, T/C: 77.6%
[20]
  viability, T/C: 76.4%
[21]
  viability, T/C: 69.8%
[22]
  viability, T/C: 62.8%
[23]
  viability, T/C: 71.2%
[24]
  viability, T/C: 90%
[25]
  viability, T/C: 62.3%
[26]
  viability, T/C: 65.9%
[27]
  viability, T/C: 60.5%
[28]
  viability, T/C: 53.8%
[29]
  viability, T/C: 57.8%
[30]
  viability, T/C: 65.1%
[31]
  viability, T/C: 38.7%
[32]
  viability, T/C: 24.8%
[33]
  viability, T/C: 31.6%
[34]
  viability, T/C: 24.8%
[35]
  viability, T/C: 34.6%
[36]
  viability, T/C: 23.6%

## C=CC(=O)N1CCN(c2nc(=O)n(-c3c(C)ccnc3C(C)C)c3nc(-c4c(O)cccc4F)c(F)cc23)C(C)C1 (stereo not drawn) + Cc1cnc(CNC(=O)c2c(=O)c3ccc(N4CCCN(C)CC4)nc3n3c2sc2ccccc23)cn1
Second compound 0.0316 µM
  IC50: > 10 µM
Second compound 0.1 µM
  IC50: > 10 µM
Second compound 0.316 µM
  IC50: > 10 µM
Second compound 1 µM
  IC50: > 10 µM
Second compound 3.16 µM
  IC50: > 10 µM
Second compound 10 µM
  IC50: < 0.0316 µM
[1]
  viability, T/C: 92.7%
[2]
  viability, T/C: 97.3%
[3]
  viability, T/C: 91%
[4]
  viability, T/C: 83.2%
[5]
  viability, T/C: 102%
[6]
  viability, T/C: 82.9%
[7]
  viability, T/C: 80.8%
[8]
  viability, T/C: 66.3%
[9]
  viability, T/C: 77.6%
[10]
  viability, T/C: 81.7%
[11]
  viability, T/C: 86.4%
[12]
  viability, T/C: 80.4%
[13]
  viability, T/C: 89.3%
[14]
  viability, T/C: 55.1%
[15]
  viability, T/C: 62.6%
[16]
  viability, T/C: 73.3%
[17]
  viability, T/C: 80.6%
[18]
  viability, T/C: 64.1%
[19]
  viability, T/C: 65.1%
[20]
  viability, T/C: 74.9%
[21]
  viability, T/C: 58.2%
[22]
  viability, T/C: 83%
[23]
  viability, T/C: 77.6%
[24]
  viability, T/C: 79.8%
[25]
  viability, T/C: 69%
[26]
  viability, T/C: 60.4%
[27]
  viability, T/C: 60.1%
[28]
  viability, T/C: 55.4%
[29]
  viability, T/C: 63.3%
[30]
  viability, T/C: 54%
[31]
  viability, T/C: 48.1%
[32]
  viability, T/C: 36%
[33]
  viability, T/C: 60.9%
[34]
  viability, T/C: 50.9%
[35]
  viability, T/C: 51.5%
[36]
  viability, T/C: 5.43%
